Reference: patent US6737383B1, “Herbicidal oxadiazolidines” (priority 1999, dated 2004)

What was measured:
black nightshade = assay: Test E black nightshade; assay type: in vivo, Solanum nigra; conditions: Preemergence
chickweed = assay: Test E chickweed; assay type: in vivo, Stellaria media; conditions: Postemergence
Description: (§1) Compounds evaluated in this test were formulated in a non-phytotoxic solvent mixture which included a surfactant and applied to plants that were in the 1- to 4-leaf stage (postemergence application). A mixture of sandy loam soil and greenhouse potting mix in a 60:40 ratio was used for the postemergence test.
(§2) Plantings of these crops and weed species were adjusted to produce plants of appropriate size for the postemergence test. All plant species were grown using normal greenhouse practices. Crop and weed species include annual bluegrass (Poa annua), blackgrass (Alopecurus myosuroides), black nightshade (Solanum nigra), chickweed (Stellaria media), common poppy (Papaver rhoeas), deadnettle (Lamium amplexicaule), downy brome (Bromus tectorum), field violet (Viola arvensis), galium (Galium aparine), green foxtail (Setaria viridis), Italian ryegrass (Lolium multiflorum), jointed goatgrass (Aegilops cylindrica), kochia (Kochia scoparia), lambsquarters (Chenopodium album), littleseed canarygrass (Phalaris minor), rape (Brassica napus), redroot pigweed (Amaranthus retroflexus), Russian thistle (Salsola kali), scentless chamomile (Matricaria inodora), spring barley (Hordeum vulgare), sugar beet (Beta vulgaris), sunflower (Helianthus annuus), ivyleaf speedwell (Veronica hederaefolia), spring wheat (Triticum aestivum), winter wheat (Triticum aestivum), wild buckwheat (Polygonum convolvulus), wild mustard (Sinapis arvensis), wild oat (Avena fatua), windgrass (Apera spica-venti) and winter barley (Hordeum vulgare).
(§3) Treated plants and untreated controls were maintained in a greenhouse for approximately 21 to 28 days, after which all treated plants were compared to untreated controls and visually evaluated. […] A dash response (-) means no test result.

green foxtail = assay: Test E green foxtail; assay type: in vivo, Setaria viridis; conditions: Postemergence
Description: as §1, §2, §3

winter barley = assay: Test E winter barley; assay type: in vivo, Hordeum vulgare; conditions: Postemergence
How it was run: (§4)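 Postemergence: 60:40 sandy loam/greenhouse potting mix, 1- to 4-leaf stage. Formulation: solvent plus surfactant. Assessment: visual comparison with untreated controls at ~21–28 days.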

downy brome = assay: Test E downy brome; assay type: in vivo, Bromus tectorum; conditions: Postemergence; for Plant response rating, Downy brome: 0 to 100 scale
Description: as §1, §2, §3

common poppy = assay: Test E common poppy; assay type: in vivo, Papaver rhoeas; conditions: Postemergence; for Plant response rating, Comnion poppy: Rate 125 g/ha
Description: as §1, §2, §3

field violet = assay: Test E field violet; assay type: in vivo, Viola arvensis; conditions: Preemergence
rape [1] = assay: Test E rape; assay type: in vivo, Brassica napus; conditions: Preemergence
spring barley = assay: Test E spring barley; assay type: in vivo, Hordeum vulgare; conditions: Preemergence
wild mustard = assay: Test E wild mustard; assay type: in vivo, Sinapis arvensis; conditions: Postemergence
How it was run: as §4

rape [2] = assay: Test E rape; assay type: in vivo, Brassica napus; conditions: Postemergence
Description: […] A mixture of sandy loam soil and greenhouse potting mix in a 60:40 ratio was used for the postemergence test.
as §2, §3

johnsongrass = assay: Test C postemergence johnsongrass; assay type: in vivo, Sorghum halepense; conditions: 0 to 100 scale, 0 no effect, 100 complete control
How it was run: (§5)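 Activity is expressed as percent-style visual control, 0 (no effect) to 100 (complete control), assessed approximately 14 to 21 days after application, relative to untreated plants. Application was postemergence, using a non-phytotoxic solvent formulation with surfactant.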

corn = assay: Test C postemergence corn; assay type: in vivo, Zea mays; conditions: 0 to 100 scale, 0 no effect, 100 complete control
How it was run: as §5

soybean = assay: Test C postemergence soybean; assay type: in vivo, Glycine max; conditions: 0 to 100 scale, 0 no effect, 100 complete control
Description: as §1, with “grown for various periods of time before treatment” for “in the 1- to 4-leaf stage”
(§6) Plantings of these crops and weed species were adjusted to produce plants of appropriate size for the postemergence test. All plant species were grown using normal greenhouse practices. Crop and weed species include arrowleaf sida (Sida rhombifolia), barnyardgrass (Echinochloa crus-galli), cocklebur (Xanthium strumarium), common ragweed (Ambrosia elatior), corn (Zea mays), cotton (Gossypium hirsutum), eastern black nightshade (Solanum ptycanthum), fall panicum (Panicum dichotomiflorum), field bindweed (Convolvulus arvensis), giant foxtail (Setaria faberii), hairy beggarticks (Bidens pilosa), ivyleaf morningglory (Ipomoea hederacea), johnsongrass (Sorghum halepense), ladysthumb smartweed (Polygonum persicaria), lambsquarters (Chenopodium album), large crabgrass (Digitaria sanguinalis), purple nutsedge (Cyperus rotundus), redroot pigweed (Amaranthus retroflexus), soybean (Glycine max), surinam grass (Brachiaria decumbens), velvetleaf (Abutilon theophrasti) and wild poinsettia (Euphorbia heterophylla).
(§7) Treated plants and untreated controls were maintained in a greenhouse for approximately 14, to 21 days, after which all treated plants were compared to untreated controls and visually evaluated. Plant response ratings, summarized in Table C, were based upon a 0 to 100 scale where 0 was no effect and 100 was complete control. A dash response (−) means no test result.

giant foxtail = assay: Test C postemergence giant foxtail; assay type: in vivo, Setaria faberii; conditions: 0 to 100 scale, 0 no effect, 100 complete control
Description: as §1, with “grown for various periods of time before treatment” for “in the 1- to 4-leaf stage”
as §6, §7

fall panicum = assay: Test C postemergence fall panicum; assay type: in vivo, Panicum dichotomiflorum; conditions: 0 to 100 scale, 0 no effect, 100 complete control
How it was run: as §5

velvetleaf = assay: Test C postemergence velvetleaf; assay type: in vivo, Abutilon theophrasti; conditions: 0 to 100 scale, 0 no effect, 100 complete control
How it was run: as §5

[3] = Rate 125 g/ha, 0 to 100 scale (0 no effect, 100 complete control)
[4] = Rate 500 g/ha, 0 to 100 scale where 0 is no effect and 100 is complete control
[5] = Rate 250 g/ha, 0 to 100 scale (0 no effect, 100 complete control)
[6] = Rate 500 g/ha, 0 to 100 scale, 0 no effect, 100 complete control
[7] = Rate 500 g/ha, 0 no effect, 100 complete control
[8] = Rate 250 g/ha, 0 to 100 scale where 0 is no effect and 100 is complete control

## CC(C)N(C(=O)n1oc(=O)n(C(C)C)c1=O)c1ccc(Cl)cc1 [Compound 114]
Black nightshade; [3]
  Plant response rating, Blk nightshade: 20
Black nightshade; Rate 250 g/ha, 0 to 100 scale
  Plant response rating, Blk nightshade: 60
Black nightshade; [4]
  Plant response rating, Blk nightshade: 90
chickweed; Rate 125 g/ha, 0 to 100 scale
  Plant response rating, Chickweed: 10
chickweed; [5]
  Plant response rating, Chickweed: 0
chickweed; [6]
  Plant response rating, Chickweed: 10
Green foxtail; Rate 125 g/ha, 0 to 100 scale
  Plant response rating, Green foxtail: 20
Green foxtail; [5]
  Plant response rating, Green foxtail: 50
Green foxtail; [6]
  Plant response rating, Green foxtail: 90
Winter barley; Rate 125 g/ha, 0 to 100 scale
  Plant response rating, Barley (winter): 5
Winter barley; [5]
  Plant response rating, Barley (winter): 10
Winter barley; [6]
  Plant response rating, Barley (winter): 20
Downy brome; Rate 125 g/ha
  Plant response rating, Downy brome: 0
Downy brome; [5]
  Plant response rating, Downy brortie: 0
Downy brome; [7]
  Plant response rating, Downy brome: 30
Common poppy; 0 to 100 scale
  Plant response rating, Comnion poppy: 0
Common poppy; [5]
  Plant response rating, Common poppy: 10
Common poppy; [6]
  Plant response rating, Common poppy: 20
Field violet; [3]
  Plant response rating, Field violet: 0
Field violet; Rate 250 g/ha, 0 to 100 scale
  Plant response rating, Field violet: 0
Field violet; [4]
  Plant response rating, Field violet: 10
Rape [1]; [3]
  Plant response rating, Rape: 0
Rape [1]; Rate 250 g/ha, 0 to 100 scale
  Plant response rating, Rape: 20
Rape [1]; [4]
  Plant response rating, Rape: 50
Spring barley; [3]
  Plant response rating, Spring Barley: 0
Spring barley; Rate 250 g/ha, 0 to 100 scale
  Plant response rating, Spring Barley: 0
Spring barley; [4]
  Plant response rating, Spring Barley: 20
Wild mustard; Rate 125 g/ha, 0 to 100 scale
  Plant response rating, Wild mustard: 75
Wild mustard; [5]
  Plant response rating, Wild mustard: 50
Wild mustard; [6]
  Plant response rating, Wild mustard: 70
Rape [2]; Rate 125 g/ha, 0 to 100 scale
  Plant response rating, Rape: 55
Rape [2]; [5]
  Plant response rating, Rape: 50
Rape [2]; [6]
  Plant response rating, Rape: 55

## CCn1c(=O)on(C(=O)N(c2ccccc2)C(C)C)c1=O [Compound 117]
johnsongrass; Rate 140 g/ha
  Plant response rating Johnsongrass: 10
johnsongrass; Rate 280 g/ha
  Plant response rating Johnsongrass: 35
johnsongrass; Rate 560 g/ha
  Plant response rating Johnsongrass: 40
johnsongrass; Rate 1120 g/ha
  Plant response rating Johnsongrass: 85
corn; Rate 140 g/ha
  Plant response rating, Corn: 0
corn; Rate 280 g/ha
  Plant response rating, Corn: 0
corn; Rate 560 g/ha
  Plant response rating, Corn: 40
corn; Rate 1120 g/ha
  Plant response rating, Corn: 85
soybean; Rate 140 g/ha
  Plant response rating, Soybean: 10
soybean; Rate 280 g/ha
  Plant response rating, Soybean: 35
soybean; Rate 560 g/ha
  Plant response rating, Soybean: 40
soybean; Rate 1120 g/ha
  Plant response rating, Soybean: 60
Giant foxtail; Rate 140 g/ha
  Plant response rating, Giant foxtail: 0
Giant foxtail; Rate 280 g/ha
  Plant response rating, Giant foxtail: 60
Giant foxtail; Rate 560 g/ha
  Plant response rating, Giant foxtail: 75
Giant foxtail; Rate 1120 g/ha
  Plant response rating, Giant foxtail: 80
Fall panicum; Rate 140 g/ha
  Plant response rating Fall panicum: 0
Fall panicum; Rate 560 g/ha
  Plant response rating Fall panicum: 40
Fall panicum; Rate 1120 g/ha
  Plant response rating Fall panicum: 80
velvetleaf; Rate 140 g/ha
  Plant response rating, Velvetleaf: 0
velvetleaf; Rate 560 g/ha
  Plant response rating, Velvetleaf: 20
velvetleaf; Rate 1120 g/ha
  Plant response rating, Velvetleaf: 60

## CC(C)N(C(=O)n1oc(=O)n(C(C)C)c1=O)c1ccc(F)cc1 [Compound 131]
johnsongrass; Rate 140 g/ha
  Plant response rating Johnsongrass: 15
johnsongrass; Rate 280 g/ha
  Plant response rating Johnsongrass: 40
johnsongrass; Rate 560 g/ha
  Plant response rating Johnsongrass: 60
johnsongrass; Rate 1120 g/ha
  Plant response rating Johnsongrass: 70
Black nightshade; [3]
  Plant response rating, Blk nightshade: 70
Black nightshade; Rate 250 g/ha
  Blk nightshade plant response rating (0 to 100 scale): 85
Black nightshade; [4]
  Plant response rating, Blk nightshade: 90
chickweed; Rate 62 g/ha, 0 to 100 scale
  Plant response rating, Chickweed: 60
chickweed; Rate 125 g/ha, 0 to 100 scale
  Plant response rating, Chickweed: 10
chickweed; [6]
  Plant response rating, Chickweed: 50
chickweed; [8]
  Chickweed plant response rating: 20
Green foxtail; Rate 62 g/ha, 0 to 100 scale
  Plant response rating, Green foxtail: 55
Green foxtail; Rate 125 g/ha, 0 to 100 scale
  Plant response rating, Green foxtail: 70
Green foxtail; [6]
  Plant response rating, Green foxtail: 75
Green foxtail; [8]
  Green foxtail plant response rating: 50
Winter barley; Rate 62 g/ha, 0 to 100 scale
  Plant response rating, Barley (winter): 5
Winter barley; Rate 125 g/ha, 0 to 100 scale
  Plant response rating, Barley (winter): 0
Winter barley; [6]
  Plant response rating, Barley (winter): 20
Winter barley; [8]
  Barley (winter) plant response rating: 0
Downy brome; Rate 62 g/ha
  Plant response rating, Downy brome: 55
Downy brome; Rate 125 g/ha
  Plant response rating, Downy brome: 0
Downy brome; [7]
  Plant response rating, Downy brome: 70
Downy brome; [8]
  Downy brome plant response rating: 50
corn; Rate 140 g/ha
  Plant response rating, Corn: 0
corn; Rate 280 g/ha
  Plant response rating, Corn: 0
corn; Rate 560 g/ha
  Plant response rating, Corn: 5
corn; Rate 1120 g/ha
  Plant response rating, Corn: 40
Common poppy; Rate 62 g/ha, 0 to 100 scale
  Plant response rating, Common poppy: 65
Common poppy; 0 to 100 scale
  Plant response rating, Comnion poppy: 0
Common poppy; [6]
  Plant response rating, Common poppy: 0
Common poppy; [8]
  Common poppy plant response rating: 0
Field violet; [3]
  Plant response rating, Field violet: 20
Field violet; Rate 250 g/ha
  Field violet plant response rating (0 to 100 scale): 20
Field violet; [4]
  Plant response rating, Field violet: 40
soybean; Rate 140 g/ha
  Plant response rating, Soybean: 20
soybean; Rate 280 g/ha
  Plant response rating, Soybean: 25
soybean; Rate 560 g/ha
  Plant response rating, Soybean: 30
soybean; Rate 1120 g/ha
  Plant response rating, Soybean: 45
Rape [1]; [3]
  Plant response rating, Rape: 70
Rape [1]; Rate 250 g/ha
  Rape plant response rating (0 to 100 scale): 75
Rape [1]; [4]
  Plant response rating, Rape: 90
Giant foxtail; Rate 140 g/ha
  Plant response rating, Giant foxtail: 10
Giant foxtail; Rate 280 g/ha
  Plant response rating, Giant foxtail: 40
Giant foxtail; Rate 560 g/ha
  Plant response rating, Giant foxtail: 60
Giant foxtail; Rate 1120 g/ha
  Plant response rating, Giant foxtail: 80
Fall panicum; Rate 140 g/ha
  Plant response rating Fall panicum: 0
Fall panicum; Rate 280 g/ha
  Plant response rating Fall panicum: 40
Fall panicum; Rate 560 g/ha
  Plant response rating Fall panicum: 90
Fall panicum; Rate 1120 g/ha
  Plant response rating Fall panicum: 90
Spring barley; [3]
  Plant response rating, Spring Barley: 20
Spring barley; Rate 250 g/ha
  Spring Barley plant response rating (0 to 100 scale): 70
Spring barley; [4]
  Plant response rating, Spring Barley: 85
Wild mustard; Rate 62 g/ha, 0 to 100 scale
  Plant response rating, Wild mustard: 30
Wild mustard; Rate 125 g/ha, 0 to 100 scale
  Plant response rating, Wild mustard: 0
Wild mustard; [6]
  Plant response rating, Wild mustard: 30
Wild mustard; [8]
  Wild mustard plant response rating: 0
Rape [2]; Rate 62 g/ha, 0 to 100 scale
  Plant response rating, Rape: 10
Rape [2]; Rate 125 g/ha, 0 to 100 scale
  Plant response rating, Rape: 0
Rape [2]; [6]
  Plant response rating, Rape: 0
Rape [2]; [8]
  Rape plant response rating: 0
velvetleaf; Rate 140 g/ha
  Plant response rating, Velvetleaf: 0
velvetleaf; Rate 280 g/ha
  Plant response rating, Velvetleaf: 0
velvetleaf; Rate 560 g/ha
  Plant response rating, Velvetleaf: 10
velvetleaf; Rate 1120 g/ha
  Plant response rating, Velvetleaf: 70
